The source of these data is patent US8592603B2, “Synthesis of 2-(4-aminophenyl) benzothiazole derivatives and use thereof” (Kaohsiung Medical University, priority 2011, dated 2013).

One series concerns caspase-3. Put plainly: Caspase-3 colorimetric assay. As to conditions: BCC cells, 6f-UVA treatment, compared with untreated control, p<0.01 (FIG. 4A). Type of series: cell-based, human. As to the method:
(§1) (A) The increased enzymatic activities of the caspase-3 in apoptotic were determined by colorimetric reaction. The cleavage of peptide by the caspase releases the chromophore pNA (p-nitroaniline), which can be quantified spectrophotometrically at a wavelength of 405 nm. (B) Dot plots for BCC cells treated with various concentrations of 6f-UVA and then stained with PI and an annexin V-FITC conjugate specifically detecting the exposure of PS residues at the cell surface. (C) Morphological observation and annexin V/PI double stain were used for the detection of fibroblasts apoptosis. Approximately 10000 cells from each group were analyzed by flow cytometry. Data shown are of a representative experiment repeated three times with similar results. ** p<0.01 as compared with the control.
Twenty-four hours after irradiation, cells were collected by centrifugation, washed once with PBS, and cell pellets were counted and resuspended in 25 μL/1×10^6 cells of cold lysis buffer and homogenized. Homogenates were centrifuged at 12,000 rpm for 10 min at 4° C., supernatants were used for measuring caspase-3 activity using an ELISA-based assay, according to the manufacturer's instructions. (R&D Systems, Minneapolis, Minn.). The results were presented as mean±SD.

Series [1] relates to BCC cells. Put plainly: Annexin V and PI binding assay. Type of series: cell-based, human. The following applies: for apoptotic cells (annexin V+/PI−): BCC cells, 1 J/cm^2 UVA. As to the method: as §1
To assess the simultaneous observation of early phase of apoptotic and necrotic features, BCC cells were treated with various concentrations (0-4 μM) of Formula 6f for 4 h before irradiation. Twenty-four hours after irradiation, cells were harvested by trypsinization and centrifugation and measured by cytometry by adding annexin V-FITC to […] per sample according to the manufacturer's specifications (Bender MedSystems, Vienna, Austria). Simultaneously, the cells were stained with PI. Flow cytometry data were analyzed by the WinMDI software.

Series [2] deals with BCC cells. Put plainly: Assessment of mitochondrial membrane potential (DiOC6). The series is classed as cell-based, human. The following applies: dosages equal to or greater than 2 μM, 1 J/cm^2 UVA (FIG. 5B). The method, then:
(§2) (A) 6f-UVA induced ROS generation in BCC cells. Histogram of fluorescence vs cell count in BCC cells with various concentrations of 6f-UVA and stained with DCFH-DA. As a control, ROS was measured in the presence of catalase, a H2O2 scavenger. (B) The ΔΨmt of BCC cells after exposure to 6f-UVA. Cells were treated with 0, 2, and 4 μM Formula 6f for 4 h followed by 1 J/cm2 UVA irradiation, then stained with DiOC6 and analyzed immediately by flow cytometry as described under Materials and Methods. The number in M1 indicates the percentage of cells with reduced ΔΨmt. Approximately 10000 cells from each group were analyzed by flow cytometry. (C) Relative ATP levels were calculated as the percentage of the 0 μM level. Similar results were obtained in three independent experiments. *p<0.05, ** p<0.01 as compared with the control.
BCC cells were cultured in 35-mm dishes and allowed to reach exponential growth for 24 h before treatment. Cells were pretreated with […] Formula 6f for 4 h before 1 J/cm^2 UVA irradiation. The medium was removed and the adherent cells trypsinized. […] The samples were analyzed immediately for fluorescence (FL-1 detector, filter 530/30 nm band pass) on a FACScan flow cytometer (Elite ESP, Beckman Coulter, Brea, Calif.). Histograms were analyzed using Windows Multiple Document interface software (WinMDI).

The subject of the next series is p38. The series is described as follows: Western blot analysis of MAPK phosphorylation: p38. The series is classed as cell-based, human. As to conditions: BCC cells, 6f-UVA at 4 μM, compared with untreated control (FIG. 6A). The method, then:
(A) After exposure to different concentration of 6f-UVA, cell lysates were collected and immunoblotted with specific antibodies as indicated. For the internal control, the same amounts of protein extract were also probed with antibody against actin. (B) As a control, the expression level of p-ERK was determined in the presence of oligomycin (25 μM) and ATP (1×10^−4M)
Total cell extracts from cultured BCC cells were obtained by lysing the cells in ice-cold RIPA buffer (1×PBS, 1% NP-40, 0.5% sodium deoxycholate, 0.1% SDS) containing 100 μg/mL PMSF, 2 μg/mL aprotinin, 2 μg/mL leupeptin and 100 μg/mL NaF. After centrifugation at 14,000 g for 30 min, protein in the supernatants was quantified by Bradford method (Bio-Rad). Forty micrograms of protein per lane was applied in 10% SDS-poly-acrylamide gel. After electrophoresis, protein was transferred from the gel to polyvinylidene difluoride (PVDF) membrane (Millipore, Bedford, Mass.). The membranes were blocked at room temperature for 1 h in PBS+0.1% Tween 20 (PBS-T) containing 5% skim milk. After being briefly rinsed with PBS-T, the blots were probed with respective primary antibodies at room temperature for 2 h or at 4° C. overnight. […] The relative amounts of specific proteins were quantified by densitometry scanning of X-ray films and analyzed by Eagle Eye Image System (Stratagene, La Jolla, Calif.)

The test system of series [3] is BCC cells. Put plainly: Determination of intracellular ROS level (DCFH-DA). As to conditions: BCC cells, 6f-UVA, DCFH-DA probe (FIG. 5A). Type of series: cell-based, human. As to the method: as §2
To evaluate intracellular reactive oxygen species (ROS) levels, 2′,7′-dichlorofluorescein diacetate (DCFH-DA, Molecular Probes) fluorescent dye was used to clarify this issue. The nonpolar DCFH-DA is converted to the polar derivative DCFH by esterases when it is taken up by the cell. DCFH is nonfluorescent but is rapidly oxidized to the highly fluorescent DCF by intracellular H2O2 or nitric oxide. […] The fluorescence of the samples was measured with a flow cytometer. The 2′,7′-dichlorofluorescein (DCF) data were recorded using FL-1 photomultiplier.

In general, melting point refers to the temperature of the solid-liquid transition. In the case of `Nc1ccc(-c2nc3ccc(C(F)(F)F)cc3s2)cc1` [Formula 6f, 2-(4-Aminophenyl)-6-trifluoromethylbenzothiazole], the melting point fell in the range of 181 to 183 °C. The caspase-3 activity result with caspase-3 is on record as “increased”. Moreover, the “necrotic cells (annexin V+/PI+)” value in the series on BCC cells [1] (BCC cells, 0, 2, and 4 μM, 1 J/cm^2 UVA (FIG. 4B)) is given as “no obvious change”. The “apoptotic cells (annexin V+/PI−)” value in the series with BCC cells [1] (2 μM) is given as 19.5%. In addition, in the series on BCC cells [1] (4 μM), the “apoptotic cells (annexin V+/PI−)” value is given as 27.5%. Moreover, the “mitochondrial membrane potential (ΔΨmt)” value with BCC cells [2] was “significant decline”. Besides, the “phosphorylation of p38 (p-p38)” value in the series on p38 was “increased”. The “intracellular H2O2 levels” value in the series with BCC cells [3] is reported as “significantly increased”.
